In patent US12233060B2, “Inhibitors of Ataxia-Telangiectasia Mutated and Rad3-related protein kinase (ATR) for use in methods of treating cancer” (THE INSTITUTE OF CANCER RESEARCH: ROYAL CANCER HOSPITAL, priority 2016, dated 2025):

Tests used:
[1] = tested on: ARID1A mutant vs ARID1A wild type tumor cell lines; assay: Five-day VX-970 sensitivity (AUC) in a diverse tumour cell line panel; type: cell-based, human; conditions: five days exposure, Student's t-test
Experimental: FIG. 2. In vitro ARID1A/ATR synthetic lethality. A. Chemical structure of VX-970. B. Western blot of ARID1A in human ARID1A isogenic HCT116 cells. C. Image of colonies in 6 well-plate clonogenic assay. HCT116 ARID1A isogenic (^+/+ and ^−/−) cell lines were exposed to increasing concentrations of the VE-821 (0, 0.1, 1 uM) and VX-970 (0, 0.01, 0.05 uM) for 14 days. D and E. Dose response clonogenic survival curve of HCT116 ARID1A isogenic (^+/+ and ^−/−) cell lines exposed to increasing concentrations of the VE-821 and VX-970 for 14 days. Error bars represent SD from triplicate experiments, ANOVA p-value of <0.0001. F. Area under curve (AUC) box whisker comparison plot for human tumor cell lines exposed to VX-970 for five days. ARID1A wild type tumor cell lines (n=15) were compared to ARID1A mutant cell lines (n=9). Student's t-test p=0.00594. G. Dose response clonogenic survival curve of mouse Arid1a isogenic ES cell lines. Experiment was performed as per (C). Error bars represent SD from triplicate experiments, ANOVA p value of <0.0001. H. Western blot of Arid1a protein expression in mouse ES Arid1a isogenic cells. […]
Short-term survival assays were performed in 384-well plates. […] Drug was added 24 h after seeding and cells were continuously exposed to the drug for five days, after which cell viability was estimated using CellTitre-Glo luminescence (Promega). […] Colonies were counted manually. […]

HCC1143 and HeLa cells = assay: Surviving fraction after five days VX-970 with SMARCA4 or ARID1A siRNA; type: cell-based, human; conditions: five days exposure
Experimental: FIG. 6. BAF complex deficiency causes sensitivity to ATR inhibition. A. Schematic of BAF complex composition in human cells. B. VX-970 dose response curves from HCT116 cells transfected with siRNA targeting ARID1B or SMARCA4. 48 hours after transfection cells were exposed to VX-970 for 5 days. Error bars represent SD from triplicate experiments. p<0.0001, ANOVA for siARID1B and siSMARCA4 vs. siCON. C. Western blots illustrating ARID1B and SMARCA4 silencing in experiment (B). D. VX-970 dose response curves from four OCCC cell lines, 3 SMARCA4 wildtype (blue; RMG1, KK and ES2) and 1 SMARCA4 mutant (red; TOV112D). E. Bar chart illustrating surviving fraction after five days VX-970 exposure in HCC1143 and He1a cells transfected with siRNA targeting either SMARCA4 or ARID1A *p<0.05 by Student's t-test compared to siCon. F. Western blot illustrating level of chromatin bound TOP2A in HCT116 cells transfected siRNA targeting ARID1A, ARID1B or SMARCA4. Cells were analysed 48 hours after transfection. G. A model for the proposed mechanism driving the sensitivity of ARID1A-deficient cells to ATRi. Loss of function genomic alterations to ARID1A (or ARID1B/SMARCA4) lead to dysfunction of the BAF complex. This in turn causes decreased binding of TOP2A to chromatin, reducing the efficiency of chromosomal decatenation. […]

SYO1 cells = assay: DNA fibre analysis, replication fork speed in SYO1 cells; type: cell-based, human; conditions: 0.1 μM for two hours; p<0.0001
Experimental: FIG. 10. ATR inhibitors elicit replication fork stress in SS tumour cells. […] Error bars represent SEM from triplicate experiments. p values were derived from Student's t tests. B. Western blot illustrating PARP1 cleavage in SYO1 cells exposed to VX970 for 24 hours. C. Western blot illustrating H2AX phosphorylation (γH2AX) in SYO1 cells exposed to VX970 (0.1 μM). D. Confocal microspcopy images illustrating H2AX phosphorylation in SYO1 cells exposed to VX970 (0.1 μM, 24 hours). E. Bar chart depicting data from (D). Error bars represent SEM from 100 images. p values were derived from Student's t tests. F. Replication fork speeds in SYO1 cells exposed to 0.1 μM VX970 for two hours. p value was derived from a Student's t test. G. Replication fork speeds in HCT116 cells exposed to 0.1 μM VX970 for two hours in the presence and absence of ectopic expression of a SS18-SSX1 fusion protein. p values were derived from Student's t tests. Expression of SS18-SSX1 or exposure to VX970 reduced fork speed. Combined SS18-SSX1 expression and VX970 exposure enhanced the reduction in fork speed. H and I. FACS plots from SYO1 cells exposed to VX970.
ATRi induced cytotoxicity in tumour cells derived from carcinomas is often associated with an increase in replication fork stress.

TOV21G xenografts = assay: In vivo efficacy, established TOV21G xenografts; design: species or system mice; conditions: 60 mg/kg, 4x weekly oral gavage, 28 days; p=0.014 ANOVA

With CNCc1ccc(-c2cc(-c3nc(-c4ccc(S(=O)(=O)C(C)C)cc4)cnc3N)on2)cc1 [VX-970, 5-[4-(Isopropylsulfonyl)phenyl]-3-(3-{4-[(methylamino)methyl]phenyl}-1,2-oxazol-5-yl)-2-pyrazinamine] the “sensitivity of ARID1A mutant (n=9) vs non-mutant (n=15) tumour cell lines” value [1] was “significantly more sensitive to VX-970”, the “VX-970 sensitivity caused by SMARCA4 silencing vs ARID1A siRNA” value (HCC1143 and HeLa cells) was “comparable to that caused by ARID1A siRNA” and the replication fork speed (SYO1 cells) was “significant reduction in replication fork speed”. For the same compound, the “growth of established TOV21G tumours vs vehicle” value (TOV21G xenografts) was “significantly inhibited the growth”.
